# Test results: US12109245B2, “Extract of aerial parts of Maca rich in polyphenols and composition comprising same” (LABORATOIRES EXPANSCIENCE, priority 2010, dated 2024)
# Tests used:
# Type in all cases: cell-based
# Jurkat cell lines = assay: UV-induced lipid peroxidation (C11-Fluor probe, flow cytometry); settings: 100 μM BHT
# Protocol: Jurkat cell lines were pre-incubated for 45 minutes in the presence of 0.005% and 0.01% (w/v of active substance) Maca leaf extract (MC) or 100 μM BHT (reference) and in the presence of the C11-Fluor fluorescent probe, specific for lipid peroxidation.
# The cells were then irradiated with UVA+B and incubated for 30 minutes in the presence of MC or BHT.
# At the end of incubation, the quantity of lipid peroxides was evaluated by means of a flow cytometry analysis of the fluorescence intensity (inversely proportional to oxidation).
# The results were analysed were analysed statistically using a Student's t test.
# Human neutrophils = assay: Release of elastase by neutrophils; settings: 10 μg/ml Boswellic acid
# Protocol: Human neutrophils were treated for 15 minutes with 0.005 and 0.01% (w/v of active substance) Maca leaf extract (MC) or with 10 μg/ml Boswellic acid (reference) and stimulated with 1 μM calcium ionophore A23187, for 10 minutes. The release of elastase was evaluated by measuring the elastase activity with a spectrophotometric method. The results were analysed statistically using a Student's t test.
# Normal human adipocytes = assay: Evaluation of lipogenesis in adipocytes ([14C]-acetate incorporation); settings: 20 μM cerulenin
# Protocol: Normal human adipocytes were incubated for 1 hour in the presence of 0.005% and 0.01% (w/v of active substance) Maca leaf extract or reference (20 μM cerulenin). After incubation, the radioactive marker [^14C]-acetate was added and the samples were incubated overnight.
# At the end of incubation, the lipids were extracted and the incorporated radioactivity (corresponding to lipogenesis) was measured by means of liquid scintillation.
# The results were analysed statistically using a Student's t test.
# [1] = system: Human keratinocytes (NCTC-2544 line); assay: PMA-induced IL8 and PGE2 production by keratinocytes (ELISA)
# Protocol: The cells were then treated with 0.1 μg/ml PMA (Phorbol Myristate Acetate) for 24 hours, also in the presence of MC or the references. Following the treatment, the quantities of IL8 (interleukin8) and PGE2 (prostaglandin E2) secreted were measured by means of ELISA in the culture supernatants. The results were analysed statistically using a Student's t test.
# [2] = system: Normal human dermal fibroblasts; assay: Gene expression of dermal matrix markers in fibroblasts (real-time RT-PCR); settings: 5 ng/ml TGFβ1, 24 hours
# Protocol: Normal human dermal fibroblasts were treated for 24 hours with 0.002% and 0.005% (w/v of active substance) Maca leaf extract (MC) or with 5 ng/ml TGFβ1 (reference).
# At the end of incubation, the gene expression of various dermal matrix markers was analysed by means of real-time RT-PCR.
# The results were analysed statistically by means of a one-factor ANOVA followed by a Dunnett test.
compound,measurement,setting,value
Cc1cc(C(C)(C)C)c(O)c(C(C)(C)C)c1 [BHT],Protection (%) against UV-induced lipid peroxidation,Jurkat cell lines,49%
same,Lipid peroxidases (% irradiated reference),Jurkat cell lines; UVA+B irradiated cells = 100,64%
C[C@H]1[C@H](C)CC[C@]2(C)CC[C@]3(C)C(=CC[C@@H]4[C@@]5(C)CC[C@@H](O)[C@](C)(C(=O)O)[C@@H]5CC[C@]43C)[C@H]12 [Boswellic acid],Elastase (net release; %),"Human neutrophils; 15 minutes, 1 μM calcium ionophore A23187 = 100",50.90 ± 7.49%
same,inhibition at 10 µg/mL,"Human neutrophils; Homo sapiens, Neutrophil",49%
"C/C=C/C/C=C/CCC(=O)[C@H]1O[C@H]1C(N)=O [Cerulenin, cerulenin]",Acetate incorporation (cpm),Normal human adipocytes; control cells 32895 ± 1358,14934 ± 671 cpm
same,inhibition at 20 µM,"Normal human adipocytes; Homo sapiens, Adipocyte",55%
C[C@@H]1C[C@H]2[C@@H]3CCC4=CC(=O)C=C[C@]4(C)[C@@]3(F)[C@@H](O)C[C@]2(C)[C@@]1(O)C(=O)CO [dexamethasone],IL8 Inhibition,"[1]; 10−7M dexamethasone, 0.1 μg/ml PMA",85%
same,IL8 production,"[1]; 10−7M dexamethasone, 0.1 μg/ml PMA 24 hours (PMA alone 50.1 ± 1.8)",7.4 ± 0.08 ng/ml %
COc1ccc2c(c1)c(CC(=O)O)c(C)n2C(=O)c1ccc(Cl)cc1 [indometacin],PGE2 Inhibition,"[1]; 10−6M indometacin, 0.1 μg/ml PMA",100%
same,PGE2 production,"[1]; 10−6M indometacin, 0.1 μg/ml PMA 24 hours (PMA alone 138.4 ± 10.6)",0.039 ± 0.0 ng/ml %
TGFβ1: 5 ng/ml TGFβ1 (reference) in the dermal fibroblast test,"Collagen I gene expression, change vs control",[2],+40%
same,"Dermatopontin gene expression, change vs control",[2],+34%
same,"Elastin gene expression, change vs control",[2],+57%
same,"Fibronectin gene expression, change vs control",[2],+141%
same,"MMP1 gene expression, change vs control",[2],−78%
same,Collagen I gene expression (Relative Quantity),[2]; control = 1.00,1.40
same,Dermatopontin gene expression (Relative Quantity),[2]; control = 1.00,1.34
same,Elastin gene expression (Relative Quantity),[2]; control = 1.00,1.57
same,Fibronectin gene expression (Relative Quantity),[2]; control = 1.00,2.41
same,MMP1 gene expression (Relative Quantity),[2]; control = 1.00,0.22
